Experimental data reported in the supplement of paper PMC10307832.

Tests used:
Test in all cases: relative viability (nuclei count vs DMSO), 5 days (fraction); higher = more cells survive
[1] = compound: Cc1ccc(C(=O)Nc2ccc(CN3CCN(C)CC3)c(C(F)(F)F)c2)cc1C#Cc1cnc2cccnn12 [Ponatinib] + Nc1ncn([C@H]2C[C@H](O)[C@@H](CO)O2)c(=O)n1 [Decitabine] (partner 2 µM)
Procedure, shortened: (§1)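 Lung cancer cell lines in 1536-well plates were dosed by pin tool the day after seeding, either with one drug alone or with a fixed anchor-drug dose plus five library-drug doses (not always all listed) in √10 steps. After 5 days, cells were fixed and their nuclei stained in one step (final 0.05% Triton X-100, 1% formaldehyde, 1 ug/ml Hoechst), then counted on 4× images. Relative viability is the nuclei count in treated wells divided by that in vehicle wells. Values are medians of duplicate plates.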

[2] = compound: Cc1ccc(Nc2nccc(N(C)c3ccc4c(C)n(C)nc4c3)n2)cc1S(N)(=O)=O [Pazopanib] + CC(C)C[C@H](NC(=O)[C@H](Cc1ccccc1)NC(=O)c1cnccn1)B(O)O [Bortezomib] (partner 0.002 µM)
Procedure, shortened: as §1

[3] = compound: Cc1ccc(C(=O)Nc2ccc(CN3CCN(C)CC3)c(C(F)(F)F)c2)cc1C#Cc1cnc2cccnn12 [Ponatinib] + Cc1nc(Nc2ncc(C(=O)Nc3c(C)cccc3Cl)s2)cc(N2CCN(CCO)CC2)n1 [Dasatinib] (partner 0.075 µM)
Procedure, shortened: as §1

[4] = compound: Cc1ccc(Nc2nccc(N(C)c3ccc4c(C)n(C)nc4c3)n2)cc1S(N)(=O)=O [Pazopanib] + Cc1nc(NC(=O)N2CCC[C@H]2C(N)=O)sc1-c1ccnc(C(C)(C)C(F)(F)F)c1 [Alpelisib] (partner 2 µM)
Procedure, shortened: as §1

[5] = compound: Cc1ccc(C(=O)Nc2ccc(CN3CCN(C)CC3)c(C(F)(F)F)c2)cc1C#Cc1cnc2cccnn12 [Ponatinib] + CC(=O)c1c(C)c2cnc(Nc3ccc(N4CCNCC4)cn3)nc2n(C2CCCC2)c1=O [Palbociclib] (partner 0.5 µM)
Procedure, shortened: as §1

## UMC-11
[1]; first compound 0.006325 µM
  relative viability: 0.595
[1]; first compound 0.06325 µM
  relative viability: 0.709
[1]; first compound 0.2 µM
  relative viability: 0.575
[2]; first compound 0.01 µM
  relative viability: 0.668
[2]; first compound 0.03162 µM
  relative viability: 0.988
[2]; first compound 0.1 µM
  relative viability: 0.781
[2]; first compound 0.3162 µM
  relative viability: 0.662
[2]; first compound 1 µM
  relative viability: 0.976
[3]; first compound 0.002 µM
  relative viability: 0.465
[3]; first compound 0.006325 µM
  relative viability: 0.451
[3]; first compound 0.06325 µM
  relative viability: 0.51
[3]; first compound 0.2 µM
  relative viability: 0.465
[4]; first compound 0.01 µM
  relative viability: 1.02
[4]; first compound 0.03162 µM
  relative viability: 1.05
[4]; first compound 0.1 µM
  relative viability: 0.804
[4]; first compound 0.3162 µM
  relative viability: 0.948
[4]; first compound 1 µM
  relative viability: 1.12
[5]; first compound 0.006325 µM
  relative viability: 0.312
[5]; first compound 0.06325 µM
  relative viability: 0.287
[5]; first compound 0.2 µM
  relative viability: 0.346
